Patent US11807625B2, “Capsid inhibitors for the prevention of HIV” (Gilead Sciences, Inc., priority 2019, dated 2023)
Several values for one entry are separate records, joined by “and”; a condition that tells them apart may be missing. Equal values may be shown once.

How the values were obtained:
[1] = Plasma concentration vs. time profile of Compound Ib in rhesus after single subcutaneous dose (SHIV challenge study); format: in vivo, rhesus macaques
Description: Eight animals per group were treated with a single dose of placebo control, 150 mg/kg of a compound of Formula (Ib) (“Compound 1b”) or 300 mg/kg of a compound of Formula (Ib) (“Compound 1b”) on week 0 and allowed to wash out over time. All animals were challenged intrarectally with SHIV weekly beginning on week 1 until detectable viremia or up to a maximum of 15 challenges. SHIV challenge titer was increased over time from 10 TCID50 to 100 TCID50 through week 15 as depicted. Animal SHIV infection rate was assessed by weekly plasma viral load monitoring by qRT-PCR through study week 20.
Mean±s.d. values are shown.
PK analysis details: Rhesus plasma samples were stored frozen at −80° C. and analyzed using high resolution mass spectrometry (HRMS) with electrospray ionization in the positive mode. Quantification was performed using an accurate mass ([M+H]+) of 958.1853 for a compound of Formula (Ib) (“Compound Ib”) and 758.3270 for the internal standard, respectively.

SHIV-162P3 = assay: 7-day antiviral assay (p24 ELISA endpoint) in rhesus PBMCs infected with SHIV-162P3; format: cell-based
Description: The mean 95% effective concentration (EC95) of 1.91±0.16 nM for a compound of Formula (Ib) (“Compound Ib”) was determined using a 7-day antiviral assay (p24 ELISA endpoint) in rhesus peripheral blood mononuclear cells (PBMCs) infected with SHIV-162P3. A competitive equilibrium dialysis assay was used to quantify rhesus plasma protein binding to Compound Ib, resulting in an inhibitory quotient (IQ) equal to Compound Ib plasma concentrations divided by a mean rhesus plasma protein-binding-adjusted EC95 (paEC95) value of 30.2±2.5 nM.

## CC(C)(C#Cc1ccc(-c2ccc(Cl)c3c(NS(=O)(=O)C4CC4)nn(CC(F)F)c23)c([C@H](Cc2cc(F)cc(F)c2)NC(=O)Cn2nc(C(F)F)c3c2C(F)(F)[C@@H]2C[C@H]32)n1)S(C)(=O)=O [Compound Ib, N—((S)-1-(3-(4-chloro-3-(cyclopropanesulfonamido)-1-(2,2-difluoroethyl)-1H-indazol-7-yl)-6-(3-methyl-3-(methylsulfonyl)but-1-yn-1-yl)pyridin-2-yl)-2-(3,5-difluorophenyl)ethyl)-2-((3b S,4aR)-3-(difluoromethyl)-5,5-difluoro-3b,4,4a,5-tetrahydro-1H-cyclopropa[3,4]cyclopenta[1,2-c]pyrazol-1-yl)acetamide]
[1]; 150 mg/kg SC day 0, individual animals, study week 1, SHIV dose 10 x TCID50
  Plasma Compound Ib Concentrations: 3112 nM and 2516 nM and 762 nM and 882 nM
[1]; 150 mg/kg SC day 0, individual animals, study week 2, SHIV dose 10 x TCID50
  Plasma Compound Ib Concentrations: 2108 nM and 2027 nM and 1059 nM and 1219 nM
[1]; 150 mg/kg SC day 0, individual animals, study week 3, SHIV dose 10 x TCID50
  Plasma Compound Ib Concentrations: 750 nM and 1371 nM and 334 nM and 209 nM
[1]; 150 mg/kg SC day 0, individual animals, study week 4, SHIV dose 10 x TCID50
  Plasma Compound Ib Concentrations: 538 nM and 448 nM and 225 nM and 165 nM
[1]; 150 mg/kg SC day 0, individual animals, study week 5, SHIV dose 10 x TCID50
  Plasma Compound Ib Concentrations: 333 nM and 449 nM and 141 nM and 113 nM
[1]; 150 mg/kg SC day 0, individual animals, study week 6, SHIV dose 10 x TCID50
  Plasma Compound Ib Concentrations: 164 nM and 313 nM and 82 nM and 78 nM
[1]; 150 mg/kg SC day 0, individual animals, study week 7, SHIV dose 10 x TCID50
  Plasma Compound Ib Concentrations: 139 nM and 250 nM and 69 nM and 46 nM
[1]; 150 mg/kg SC day 0, individual animals, study week 8, SHIV dose 10 x TCID50
  Plasma Compound Ib Concentrations: 118 nM and 160 nM and 80 nM and 56 nM and 82 nM
[1]; 150 mg/kg SC day 0, individual animals, study week 9, SHIV dose 33 x TCID50
  Plasma Compound Ib Concentrations: 54 nM and 140 nM and 58 nM and 14 nM
[1]; 300 mg/kg SC day 0, individual animals, study week 1, SHIV dose 10 x TCID50
  Plasma Compound Ib Concentrations: 5528 nM and 3174 nM and 2251 nM and 1572 nM and 7818 nM and 2215 nM and 1944 nM
[1]; 300 mg/kg SC day 0, individual animals, study week 2, SHIV dose 10 x TCID50
  Plasma Compound Ib Concentrations: 1944 nM and 2466 nM and 1332 nM and 2066 nM and 3983 nM and 1949 nM and 1830 nM
[1]; 300 mg/kg SC day 0, individual animals, study week 3, SHIV dose 10 x TCID50
  Plasma Compound Ib Concentrations: 942 nM and 1003 nM and 894 nM and 508 nM and 1654 nM and 632 nM and 742 nM
[1]; 300 mg/kg SC day 0, individual animals, study week 4, SHIV dose 10 x TCID50
  Plasma Compound Ib Concentrations: 863 nM and 664 nM and 530 nM and 359 nM and 725 nM and 416 nM and 362 nM
[1]; 300 mg/kg SC day 0, individual animals, study week 5, SHIV dose 10 x TCID50
  Plasma Compound Ib Concentrations: 402 nM and 487 nM and 395 nM and 266 nM and 523 nM and 268 nM and 377 nM
[1]; 300 mg/kg SC day 0, individual animals, study week 6, SHIV dose 10 x TCID50
  Plasma Compound Ib Concentrations: 370 nM and 282 nM and 382 nM and 161 nM and 242 nM and 273 nM and 350 nM
[1]; 300 mg/kg SC day 0, individual animals, study week 7, SHIV dose 10 x TCID50
  Plasma Compound Ib Concentrations: 180 nM (2×) and 261 nM and 339 nM and 132 nM and 158 nM and 307 nM
[1]; 300 mg/kg SC day 0, individual animals, study week 8, SHIV dose 10 x TCID50
  Plasma Compound Ib Concentrations: 209 nM and 240 nM and 319 nM and 140 nM and 378 nM and 155 nM and 226 nM
[1]; 300 mg/kg SC day 0, individual animals, study week 9, SHIV dose 33 x TCID50
  Plasma Compound Ib Concentrations: 127 nM and 131 nM and 83 nM and 88 nM and 177 nM and 104 nM and 122 nM
[1]; both sexes, rhesus monkey, plasma, subcutaneous, 300 mg/kg, 300 mg/kg SC day 0, individual animals, study week 12, SHIV dose 100 x TCID50, read-out: Plasma Compound Ib Concentrations
  concentration at 12 weeks: 83 nM
[1]; both sexes, rhesus monkey, plasma, subcutaneous, 300 mg/kg, 300 mg/kg SC day 0, individual animals, study week 15, SHIV dose 100 x TCID50, read-out: Plasma Compound Ib Concentrations
  concentration at 15 weeks: 45 nM
SHIV-162P3
  mean 95% effective concentration (EC95): 1.91 ± 0.16 nM
